Ends that are not written are not given here. * marks the point of attachment. code + = amino-terminal bromo-group; nBu = CCCC*
Test system: anti-hTNF mAb 210
Experiment: Loop-loop 15-mer Matrix-scan of hTNF loop-peptides with mAb 210
Assay type: binding
Conditions: mAb 210 10 ug/ml
Description: FIG. 11: Partial listing of peptides synthesized for loop-loop 15-mer Matrix-scan (1. +AVRSSSRTPSDKPVZ (SEQ ID NO: 3); 2. +VRSSSRTPSDKPVAZ (SEQ ID NO: 4); 3. +RSSSRTPSDKPVAHZ (SEQ ID NO: 5); 4. +SSSRTPSDKPVAHVZ (SEQ ID NO: 6); 5. +SSRTPSDKPVAHVVZ (SEQ ID NO: 7); 145. +FAESGQVYFGIIALZ (SEQ ID NO: 8)). All overlapping 15-mer loop-peptides covering the linear sequence of human tumor necrosis factor (hTNF) were synthesized, i.e., 145 hTNF loop-peptides in total. Z is a Cys-butyl. The amino terminus of all peptides contain a bromo-group (+).
FIG. 12: Configuration of the loop-loop 15-mer Matrix-scan. Schematic representation of matrix-scan with two loop segments. On the polymer surface, a mixture of cys (mmt) and cys (trt) are coupled. After 1% TFA, the cys (mmt) is deprotected. Then, in each square, one peptide is coupled via its N-terminal Bromo-group (+). Thus, peptide-1 in square-1, peptide-2 in square-2, etc., until peptide-145 in square-145. Then, the cys(trt) is deprotected with 95% TFA. Then, in each square, 145 different peptides are spotted simultaneously. Thus, peptide-1 to 145 in square-1, peptide 1-145 in square-2, etc., to peptide-1 to peptide-145 in square-145. Some extra squares were used for controls (linear epitopes).
FIG. 13: Result of the loop-loop 15-mer Matrix-scan with anti-hTNF mAb 210 (10 ug/ml). The result obtained with all 145 squares is plotted. […] On top of these and other squares spots are labeled as well (spots represent first peptide coupled next to second loop peptide). Identified squares and spots: Sq-65: +FKGQGCPSTHVLLTZ (SEQ ID NO: 9); Sq-66: +KGQGCPSTHVLLTHZ (SEQ ID NO: 10); Sq-67: +GQGCPSTHVLLTHTZ (SEQ ID NO: 11); Sq-87: +SYQTKVNLLSAIKSZ (SEQ ID NO: 12); Sq-88: +YQTKVNLLSAIKSPZ (SEQ ID NO: 13); Sq-94: +LLSAIKSPCQRETPZ (SEQ ID NO: 14); Sq-95: +LSAIKSPCQRETPEZ (SEQ ID NO: 15); Sq-127: +LEKGDRLSAEINRPZ (SEQ ID NO: 16); Sq-128: +EKGDRLSAEINRPDZ (SEQ ID NO: 17); Peptide-65: +FKGQGCPSTHVLLTZ (SEQ ID NO: 18); Peptide-70: +CPSTHVLLTHTISRZ (SEQ ID NO: 19); Peptide-72: +STHVLLTHTISRIAZ (SEQ ID NO: 20); Peptide-77: +LTHTISRIAVSYQTZ (SEQ ID NO: 21); Peptide-94: +LLSAIKSPCQRETPZ (SEQ ID NO: 22); Peptide-95: +LSAIKSPCQRETPEZ (SEQ ID NO: 23); Peptide-99: +KSPCQRETPEGAEAZ (SEQ ID NO: 24); Peptide-126: +QLEKGDRLSAEINRZ (SEQ ID NO: 25); Peptide-129: +KGDRLSAEINRPDYZ (SEQ ID NO: 26). The y-axis is in arbitrary units.
FIG. 14: Result of the loop-loop 15-mer Matrix-scan with mAb 210 (10 ug/m) with details of squares 65 and 127. Combination of loop-peptide 65 with loop-peptides 94, 95, combinations of loop-peptide 65 with 126-127, combinations of loop-peptide 127 with loop-peptides 65-77 and combinations of loop-peptide 127 with loop-peptides 94-96 are labeled. The y-axis is in arbitrary units.
The monoclonal antibody mAb-210 raised against hTNF was tested on linear and loop peptides (mAb-210 was bought from R&D Systems, MAB210, clone 1825.12, through ITK Diagnostics Uithoorn, The Netherlands). Firstly, it was tested in Pepscan on all overlapping linear 12-mers covering hTNF. […] Secondly, it was tested in Pepscan matrix-scan on double 15-mer loop-loop peptides (as described in FIGS. 3 and 4 and explained through FIGS. 11-12). Two loop-regions were labeled: peptide sequence GQGCPSTHVLLT (SEQ ID NO: 65) (squares 65 to 67) and SAIKSPCQRE (SEQ ID NO: 28) (squares 92 to 96) (FIGS. 13, 14). In addition in various squares loop peptide spots were identified corresponding to sequence GQGCPSTHVLLT (SEQ ID NO: 65) (spots 65-67); SAIKSPCQRE (SEQ ID NO: 28) (spots 92-96) and KGDRLSAEINR (SEQ ID NO: 29) (spots 126-129) (FIG. 14). These three regions, illustrated in FIG. 15 on the three-dimensional model of hTNF, are located on one side of the hTNF molecule and form one large discontinuous epitope region.

Substance | labeling of spots (first peptide coupled next to second loop peptide) | labeling of squares (firstly coupled loop-peptides)
+LTHTISRIAVSYQTZ ({code +}-LTHTISRIAVSYQTX; not fully specified (residue 15); printed as +LTHTISRIAVSYQTZ; also: N- and C-terminal linker/cyclisation residues) [Peptide-77, 15-mer hTNF loop-peptide] | Identified | 
+KGDRLSAEINRPDYZ ({code +}-KGDRLSAEINRPDYC(nBu)) [Peptide-129, 15-mer hTNF loop-peptide] | Identified | 
SAIKSPCQRE (Human) | identified | labeled
+GQGCPSTHVLLTHTZ ({code +}-GQGCPSTHVLLTHTX; not fully specified (residue 15); printed as +GQGCPSTHVLLTHTZ; also: N- and C-terminal linker/cyclisation residues) [Sq-67, 15-mer hTNF loop-peptide] |  | clearly labeled
+FKGQGCPSTHVLLTZ ({code +}-FKGQGCPSTHVLLTC(nBu)) [Peptide-65, 15-mer hTNF loop-peptide] | Identified | Identified
+STHVLLTHTISRIAZ ({code +}-STHVLLTHTISRIAC(nBu)) [Peptide-72, 15-mer hTNF loop-peptide] | Identified | 
+EKGDRLSAEINRPDZ ({code +}-EKGDRLSAEINRPDX; not fully specified (residue 15); printed as +EKGDRLSAEINRPDZ; also: N- and C-terminal linker/cyclisation residues) [Sq-128, 15-mer hTNF loop-peptide] |  | Identified
+QLEKGDRLSAEINRZ ({code +}-QLEKGDRLSAEINRC(nBu)) [Peptide-126, 15-mer hTNF loop-peptide] | Identified | 
+LEKGDRLSAEINRPZ ({code +}-LEKGDRLSAEINRPX; not fully specified (residue 15); printed as +LEKGDRLSAEINRPZ; also: N- and C-terminal linker/cyclisation residues) [Sq-127, 15-mer hTNF loop-peptide] |  | Identified
KGDRLSAEINR (Human) | identified | 
+YQTKVNLLSAIKSPZ ({code +}-YQTKVNLLSAIKSPX; not fully specified (residue 15); printed as +YQTKVNLLSAIKSPZ; also: N- and C-terminal linker/cyclisation residues) [Sq-88, 15-mer hTNF loop-peptide] |  | Identified
GQGCPSTHVLLT (Human) | identified | labeled
+LSAIKSPCQRETPEZ ({code +}-LSAIKSPCQRETPEC(nBu)) [Peptide-95, 15-mer hTNF loop-peptide] | Identified | Identified
+KGQGCPSTHVLLTHZ ({code +}-KGQGCPSTHVLLTHX; not fully specified (residue 15); printed as +KGQGCPSTHVLLTHZ; also: N- and C-terminal linker/cyclisation residues) [Sq-66, 15-mer hTNF loop-peptide] |  | clearly labeled
+SYQTKVNLLSAIKSZ ({code +}-SYQTKVNLLSAIKSX; not fully specified (residue 15); printed as +SYQTKVNLLSAIKSZ; also: N- and C-terminal linker/cyclisation residues) [Sq-87, 15-mer hTNF loop-peptide] |  | Identified
+KSPCQRETPEGAEAZ ({code +}-KSPCQRETPEGAEAX; not fully specified (residue 15); printed as +KSPCQRETPEGAEAZ; also: N- and C-terminal linker/cyclisation residues) [Peptide-99, 15-mer hTNF loop-peptide] | Identified | 
+LLSAIKSPCQRETPZ ({code +}-LLSAIKSPCQRETPC(nBu)) [Peptide-94, 15-mer hTNF loop-peptide] | Identified | Identified
+CPSTHVLLTHTISRZ ({code +}-CPSTHVLLTHTISRC(nBu)) [Peptide-70, 15-mer hTNF loop-peptide] | Identified | 
GQGCPSTHVLLTHTIS (Human) | identified | 

— patent US20120190564A1, “IDENTIFICATION OF PROTEIN BINDING SITES” (priority 2000, published 2012)
